According to patent US10201530B2, “Treatment of BRCA1-defective cancer or resistant cancers” (City of Hope, priority 2014, dated 2019):

Key:
[1] = system: HCC1937+BRCA1 tumors; experiment: Orthotopic tumor explant model, HCC1937+BRCA1; type: in vivo; details: HCC1937+BRCA1 tumors in NSG mice, daily oral 400 mg/kg; p=0.1577
Procedure: Experiments in mice were conducted under a protocol approved by the IACUC of City of Hope. Because HCC1937 and HCC1937+BRCA1 cells from slow-growing tumors, they were implanted using MATRIGEL™ (Becton-Dickinson Biosciences). To establish tumors 4×10^6 cells in 200 μL serum-free medium containing 50% MATRIGEL™ were injected into the mammary fat pads around the inguinal area of a pair of 8 week old female NSG mice. Once the initial tenors reached 13 mm in diameter, they were dissected out minced into 3 mm pieces and implanted into the inguinal area of the mammary fat pads of the experimental mice Tumors were measured over a 28-day period, and for each time point, the student t-test was used to determine the statistical significance between daily gavage with 400 mg/kg COH29 in 30% solutol and corresponding vehicle control. The p value less than 0.05 (2 sides) was considered to indicate statistical significance

[2] = system: multiple human cancer cell lines; details: in most cases; cited from earlier work
[3] = system: UWB1.289; experiment: Cytotoxicity, UWB1.289 cells; type: cell-based, human; details: Homo sapiens, UWB1289; UWB1.289, BRCA1-defective ovarian cancer cells; COH29 72 h; read-out: IC50, mean ± SEM
Procedure: (§1) All cell lines were acquired from the American Type Culture Collection (Manassas, Va., USA). Cells were maintained in RPMI 1640 medium (Mediatech) with 10% fetal bovine serum, 2 mM glutamine, and 100 U of penicillin and 100 μg of streptomycin per ml of medium (Sigma) at 37° C. in 5% CO2. To isolate HCC1437+BRCA1 cells, parental HCC1937 cells were transfected with pcDNA3.1 plasmid expressing full-length BRCA1 cDNA. Stable transfectant clones were selected and used for drug sensitivity assays. For stable transfection, cells at 30-40% confluence were incubated overnight with […] of plasmid DNA, using FUGENE® 6 transfectin reagent (Roche Molecular Biochemical, Monza, Italy) according to the manufacturer's instructions. Cells were then selected in puromycin (1 μg/ml) (Invitrogen life Technologies, La Jolla, Calif., USA.) After 20 to 30 days, viable puromycin-resistant colonies from HCC1937 transfections were expanded and screened. The clones that stably expressed […] and retained growth potential were assayed for BRCA1 expression by Western blot analysis. By Western blot analysis, we evaluated the restoration of BRCA1 expression in the puromycin-resistant cDNA/transfectant cells.
The MTT cytotoxicity assay was performed by incubating with MTT and monitoring the MTT formazan formed by viable cells with a microplate reader at a wavelength of 560 nm; the survival, ratio was determined using the formula: (Atest−Ablank)/(Acontrol−Ablank)×100%. The cytotoxicity was determined in 96-well plates using the semiautomatic fluorescence-based Digital Imaging Microscopy System (DIMSCAN). DIMSCAN uses digital imaging microscopy to quantify viable cells, which selectively accumulate FDA (fluorescein diacetate; Alfa Aesar, Ward Hill, Mass.). DIMSCAN is capable of measuring cytotoxicity over a 4 log dynamic range by quantifying total fluorescence per well (which is proportional to the number of viable cells) after elimination of the background fluorescence by digital thresholding and eosin Y (Mallinckrodt Baker, Center Valley, Pa.) quenching. Cells were seeded into 96-well plates in 100 μL of complete medium at 2,000 to 5,000 cells per well depending on cell line growth rate. After overnight incubation, test compound was added to each well at various concentrations in 50 μL of culture medium. […] Total fluorescence per well was then measured using DIMSCAN, and the results were expressed as the ratio of the fluorescence in treated wells to the fluorescence in untreated wells (survival fraction).

[4] = system: KB-Gem; experiment: Cytotoxicity, KB-Gem cells; type: cell-based, human; details: Homo sapiens, gemcitabine-resistant, read-out: IC50, mean ± SEM
Procedure: as §1
The MTT cytotoxicity assay was performed by incubating with MTT and monitoring the MTT formazan formed by viable cells with a microplate reader at a wavelength of 560 nm; the survival, ratio was determined using the formula: (Atest−Ablank)/(Acontrol−Ablank)×100%. The cytotoxicity was determined in 96-well plates using the semiautomatic fluorescence-based Digital Imaging Microscopy System (DIMSCAN). DIMSCAN uses digital imaging microscopy to quantify viable cells, which selectively accumulate FDA (fluorescein diacetate; Alfa Aesar, Ward Hill, Mass.). DIMSCAN is capable of measuring cytotoxicity over a 4 log dynamic range by quantifying total fluorescence per well (which is proportional to the number of viable cells) after elimination of the background fluorescence by digital thresholding and eosin Y (Mallinckrodt Baker, Center Valley, Pa.) quenching. Cells were seeded into 96-well plates in 100 μL of complete medium at 2,000 to 5,000 cells per well depending on cell line growth rate. After overnight incubation, test compound was added to each well at various concentrations in 50 μL of culture medium. After incubation with the drugs for 96 hours at 37° C., FDA (final concentration: […]) and eosin Y [final concentration: 0.1% (w/v)] were added to each well and the cells were incubated for an additional 20 minutes at 37° C. Total fluorescence per well was then measured using DIMSCAN, and the results were expressed as the ratio of the fluorescence in treated wells to the fluorescence in untreated wells (survival fraction).

[5] = system: SKBR3; experiment: Cytotoxicity, SKBR3 cells; type: cell-based, human; details: Homo sapiens, SK-BR-3; SKBR3, ER− PR(−) HER2+
Procedure: as §1
The MTT cytotoxicity assay was performed by incubating with MTT and monitoring the MTT formazan formed by viable cells with a microplate reader at a wavelength of 560 nm; the survival, ratio was determined using the formula: (Atest−Ablank)/(Acontrol−Ablank)×100%. The cytotoxicity was determined in 96-well plates using the semiautomatic fluorescence-based Digital Imaging Microscopy System (DIMSCAN). DIMSCAN uses digital imaging microscopy to quantify viable cells, which selectively accumulate FDA (fluorescein diacetate; Alfa Aesar, Ward Hill, Mass.). DIMSCAN is capable of measuring cytotoxicity over a 4 log dynamic range by quantifying total fluorescence per well (which is proportional to the number of viable cells) after elimination of the background fluorescence by digital thresholding and eosin Y (Mallinckrodt Baker, Center Valley, Pa.) quenching. […]

For `O=C(Nc1nc(-c2ccc(O)c(O)c2)c(-c2ccccc2)s1)c1ccc(O)c(O)c1` [COH29], the “tumor size compared to vehicle controls” value [1] is listed as “not significantly smaller”, the IC50 [2] is listed as under 10 µM and the IC50 [3] is listed as 12.3 ± 1.15 µM. It also gave an IC50 [4] of 7.5 ± 0.29 µM and an IC50 [5] of 13.28 ± 0.03 µM.
